Results on one compound are retold here after US12628820B2, “Systems and methods for preservation of cells” (UNIVERSITY OF LOUISVILLE RESEARCH FOUNDATION, Inc., priority 2017, dated 2026).

For series [1], the system named is RBCs. In words: Recovery of RBCs following freeze-drying/rehydration. The class given is cell-based, pig or human. The method, then: (§1) In vitro experiments have been performed to validate the methods and systems described herein. Briefly, a 0.5 mL solution containing pig or human RBCs, 200 mM trehalose, and microbubbles was placed in a conical tube and sonicated with a 2.5-MHz clinical ultrasound probe for 70 seconds (Philips 4-1 on a Verasonics Vantage 64LE ultrasound imaging system). […] Following sonication, samples were dried (FIG. 5A-B), frozen at −80° C., or freeze-dried for 1 week. Upon thawing or rehydration, the percentage of structurally intact RBCs was counted (FIG. 6A-B). Cell recovery rates of up to 85% were achieved after freezing/thawing, compared to less than 40% without sonoporation. Cell recovery rates of up to 12% were achieved after freeze-drying/rehydration, compared to 0% without sonoporation. Although the recovery is still low, this was believed to be a significant result given that not a single RBC was recovered from freeze-dried samples that had not been treated with sonoporation. […] The microfluidic sonoporation device can further improve the recovery rates by enabling consistent and precise trehalose delivery to each cell. This device is also effective in processing RBCs for long-term preservation in a frozen or freeze-dried state.

For series [2], the system named is RBCs. In words: Recovery of RBCs following freezing/thawing. The class given is cell-based, pig or human. As to conditions: for cell recovery rate (structurally intact RBCs) after freezing/thawing: frozen at -80° C. The method, then:
as §1

In series [3] the test system is RBCs. In words: Recovery of RBCs 24 hours after sonoporation (toxicity). The class given is cell-based, pig or human. As to conditions: 200 mM trehalose, microbubbles, 2.5-MHz ultrasound 70 seconds. How it is done:
as §1

For series [4], the system named is red blood cells. In words: Microscopy of dried red blood cells after rehydration. The class given is cell-based. As to conditions: after loading with trehalose; confocal image. The method, then:
FIG. 5A-B includes microscopic images of dried red blood cells without trehalose (A) and after loading with trehalose (B).
as §1

Take `OC[C@H]1O[C@H](O[C@H]2O[C@H](CO)[C@@H](O)[C@H](O)[C@H]2O)[C@H](O)[C@@H](O)[C@@H]1O` [trehalose]: the “cell recovery rate (structurally intact RBCs) after freeze-drying/rehydration” value is given as “up to 12%” in series [1] (200 mM trehalose with sonoporation, freeze-dried for 1 week) and 0% in series [1] (without sonoporation, freeze-dried). In addition, the “recovery rate after freeze-drying, improved technique” value in series [1] (after small changes to the cell media composition and freeze-drying parameters) was “above 12%”. For the same compound, in series [1] (initial experiments (data not shown)), the “recovery after freeze-drying, initial experiments” value is recorded as “less than 8%”. The “cell recovery rate (structurally intact RBCs) after freezing/thawing” value in series [2] (200 mM trehalose with sonoporation) is “up to 85%”; in series [2] (without sonoporation), “less than 40%”. Moreover, the “recovery rate for frozen cells” value in series [2] (after small changes to the cell media composition, frozen cells) was “above 85%”. In series [3], the “cell recovery 24 hours after sonication” value is listed as above 95%. Further, the “shape of dried blood cells after rehydration” value in series [4] was “maintain shape after rehydration”.
